# In patent publication US11827663B2, “Use of UAP inhibitors to inhibit flux through the hexosamine biosynthetic pathway” (The Johns Hopkins University, priority 2014, dated 2023):
# Read-outs that look alike come from different tables or passages of the source.
# Columns and labels:
# Format in all cases: cell-based
# PANC-1 cells = assay: Cell count / cell proliferation assay in PANC-1 cells; details: for effect on PANC-1 cell numbers / proliferation: in words; for IC50: cells counted after 48 hours incubation, normalized to controls, read-out: Estimated IC50 values, PANC-1
# Experimental: (§1) FIGS. 5A and 5B show the results of cell toxicity experiments that were conducted on SW1990 and PANC-1 cells with the analogs indicated. Cells were counted after incubation with each analog for 48 hours. Cell counts were then normalized to controls, data was log transformed, and IC50 values were calculated. […]
# (§2) Cells were incubated at a range of concentrations of the UAP inhibitors (typically at 0, 10, 25, 50, 100, and 150 μM) and the number of cells were quantified, typically by automated counting (e.g., with a Coulter Counter Z2 instrument) after 1, 2, 3, or 5 days of exposure.
# SW1990 cells = assay: Cell count / cell proliferation assay in SW1990 cells; details: for effect on SW1990 cell numbers / proliferation: in words; for IC50: cells counted after 48 hours incubation, normalized to controls, read-out: Estimated IC50 values, SW1990
# Experimental: FIG. 3 depicts the result of cell count assays after two days of incubation with an exemplary compound, Ac4Glc2Bz. The cells treated with the compound are, respectively, SW1990 and PANC-1, which are pancreatic cancer cell lines. Meanwhile, control samples were treated with solvent vehicle of 2.5 μL DMSO per 1 mL of medium.
# as §1, §2
# [1] = tested on: primary human adipose stem cells (hASCs); assay: Cell count assay in control cells (human ASCs); details: Homo sapiens, 48 h; two days of exposure; 300 is the highest concentration tested
# Description: FIG. 4A and FIG. 4B depict histogram results of cell count assays after two days of exposure to each analog in cancer cell lines (SW1990 and PANC-1) and in control cells (human ASCs). […] In all cases, IC50 values were greater than 300 which is the highest concentration tested, for the ACSs, while the Ac4Glc2Bz analogs and Ac4Gal2Bz analogs were effective to reduce cell numbers in both cancer cell lines.
SMILES,effect on PANC-1 cell numbers / proliferation (PANC-1 cells),effect on SW1990 cell numbers / proliferation (SW1990 cells),IC50 (PANC-1 cells) [µM],IC50 (SW1990 cells) [µM],"IC50 (PANC-1 cells; Homo sapiens, PANC-1) [µM]","IC50 (SW1990 cells; Homo sapiens, SW1990) [µM]",IC50 [1] [µM]
"CC(=O)OC1OC(CO)C(OC(C)=O)C(OC(C)=O)C1NC(=O)c1ccccc1 (stereo not shown) [1,3,4-O-Ac3Glc2Bz]",consistently reduced cell numbers,consistently reduced cell numbers,,,,,
"CC(=O)OCC1OC(O)[C@@H](NC(=O)c2ccccc2)[C@@H](OC(C)=O)[C@@H]1OC(C)=O (stereo partly shown) [3,4,6-O—Ac3Glc2Bz]",,remarkable inhibition,76.1 ± 1.6,37.1 ± 1.8,,,
CC(=O)OCC1OC(OC(C)=O)[C@@H](NC(=O)c2ccccc2)[C@@H](OC(C)=O)[C@H]1OC(C)=O (stereo partly shown) [Ac4Gal2Bz],,remarkable inhibition,,,107 ± 1.1,39.1 ± 2.2,> 300
CC(=O)OC[C@H]1OC(OC(C)=O)[C@H](NC(=O)c2ccccc2O)[C@@H](OC(C)=O)[C@@H]1OC(C)=O (stereo partly shown) [Ac4Glc2NBz-2-OH],consistently reduced cell numbers,consistently reduced cell numbers,49.9 ± 1.3,140.3 ± 1.4,,,
CC(=O)OCC1OC(OC(C)=O)[C@@H](NC(=O)C2CCCCC2)[C@@H](OC(C)=O)[C@H]1OC(C)=O (stereo partly shown) [Ac4GlcNCyx],,,,,84.1 ± 1.5,160.9 ± 1.4,
CC(=O)OCC1OC(OC(C)=O)[C@H](NC(=O)c2ccccc2)[C@@H](OC(C)=O)[C@H]1OC(C)=O (stereo partly shown) [Ac4Man2Bz],substantially low effect,substantially low effect,,,100 ± 1.8,148 ± 1.5,
